The source of these data is BindingDB's records for doi:10.1016/j.bmcl.2009.08.022 (Roche Palo Alto, 2009).

The term IC50 denotes the concentration needed to halve the response being measured.

The target in the assay is Genome polyprotein (Hepatitis C virus genotype 1b (isolate Con1), UniProt Q9WMX2). Kind of assay: Inhibition of […] con1 NS5B polymerase assessed as [3H]UTP incorporation into acid insoluble RNA product.
Genome polyprotein, sequence (Q9WMX2 2420-3010 limits assumed): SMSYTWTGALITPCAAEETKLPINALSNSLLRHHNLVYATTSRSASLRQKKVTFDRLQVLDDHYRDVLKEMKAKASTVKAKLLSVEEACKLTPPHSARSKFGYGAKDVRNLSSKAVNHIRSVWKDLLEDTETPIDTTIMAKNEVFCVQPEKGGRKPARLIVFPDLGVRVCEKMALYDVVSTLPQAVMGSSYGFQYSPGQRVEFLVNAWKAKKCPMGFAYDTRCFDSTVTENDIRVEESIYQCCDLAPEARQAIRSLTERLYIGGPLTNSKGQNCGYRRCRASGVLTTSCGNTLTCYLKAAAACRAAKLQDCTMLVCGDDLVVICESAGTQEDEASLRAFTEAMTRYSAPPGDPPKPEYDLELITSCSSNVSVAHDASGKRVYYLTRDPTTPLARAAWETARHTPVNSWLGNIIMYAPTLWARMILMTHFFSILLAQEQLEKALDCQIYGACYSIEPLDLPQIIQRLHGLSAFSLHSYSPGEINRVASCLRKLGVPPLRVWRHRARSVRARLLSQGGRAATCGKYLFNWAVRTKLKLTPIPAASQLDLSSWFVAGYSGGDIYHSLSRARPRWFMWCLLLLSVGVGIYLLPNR

In the case of `CC(C)(C)[C@H]1C(=O)C(C2NS(=O)(=O)c3c(C=NS(N)(=O)=O)cccc32)C(=O)N1Cc1ccc(F)cc1` (stereo partly drawn) [N-({3-[(5S)-5-tert-butyl-1-[(4-fluorophenyl)methyl]-4-hydroxy-2-oxo-2,5-dihydro-1H-pyrrol-3-yl]-1,1-dioxo-{6},2-benzothiazol-7-yl}methyl)aminosulfonamide], the IC50 turned out to be 3 nM.
Consider `Cc1cc(CN2C(=O)C(C3NS(=O)(=O)c4c(C=NS(N)(=O)=O)cccc43)C(=O)[C@@H]2C(C)(C)C)ccc1F` (stereo partly drawn) [N-({3-[(5S)-5-tert-butyl-1-[(4-fluoro-3-methylphenyl)methyl]-4-hydroxy-2-oxo-2,5-dihydro-1H-pyrrol-3-yl]-1,1-dioxo-{6},2-benzothiazol-7-yl}methyl)aminosulfonamide], for which the IC50 amounted to 3 nM.
To `CC(C)(C)[C@H]1C(=O)C(=C2NS(=O)(=O)c3c(NS(C)(=O)=O)cccc32)C(=O)N1Cc1ccc(F)cc1` [N-{3-[(S)-5-tert-Butyl-1-(4-fluoro-benzyl)-4-hydroxy-2-oxo-2,5-dihydro-1H-pyrrol-3-yl]-1,1-dioxo-1H-1lambda*6*-benzo[d]isothiazol-7-yl}-methanesulfonamide] belongs 5 nM; to `CC(C)(C)[C@H]1C(=O)C(=C2NS(=O)(=O)c3c(CCS(C)(=O)=O)cccc32)C(=O)N1Cc1ccc(F)cc1` [(S)-5-tert-Butyl-1-(4-fluoro-benzyl)-4-hydroxy-3-[7-(2-methanesulfonyl-ethyl)-1,1-dioxo-1H-1lambda*6*-benzo[d]isothiazol-3-yl]-1,5-dihydro-pyrrol-2-one], 4 nM.
Take `Cc1cc(CN2C(=O)C(=C3NS(=O)(=O)c4c(CNS(C)(=O)=O)cccc43)C(=O)[C@@H]2C(C)(C)C)ccc1F` [N-{3-[(S)-5-tert-Butyl-1-(4-fluoro-3-methyl-benzyl)-4-hydroxy-2-oxo-2,5-dihydro-1H-pyrrol-3-yl]-1,1-dioxo-1H-1lambda*6*-benzo[d]isothiazol-7-ylmethyl}-methanesulfonamide]: the IC50 came out at 4 nM.
To `Cc1cc(CN2C(=O)C(=C3NS(=O)(=O)c4c(CN(C)S(C)(=O)=O)cccc43)C(=O)[C@@H]2C(C)(C)C)ccc1F` [N-{3-[(S)-5-tert-Butyl-1-(4-fluoro-3-methyl-benzyl)-4-hydroxy-2-oxo-2,5-dihydro-1H-pyrrol-3-yl]-1,1-dioxo-1H-1lambda*6*-benzo[d]isothiazol-7-ylmethyl}-N-methyl-methanesulfonamide] belongs 5 nM.
